Our source for the EC50 values is patent US12344610B2, “APOL1 inhibitors and methods of use” (Maze Therapeutics, Inc., priority 2022, dated 2025).

Each structure is given as a SMILES string.

Broadly, the EC50 is the concentration that produces a half-maximal response. A low value points to greater potency.

The subject of the assay is human immortalized podocytes inducibly expressing APOL1 G2. In words: APOL1 G2 podocyte cell rescue assay (Example B4). Type of assay: cell-based. Conditions: Homo sapiens, differentiated human podocytes, doxycycline-induced APOL1 G2, CellTiter-Glo; geometric mean of at least 2 runs; † = single run. The essentials:
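Differentiated hTERT-immortalized podocytes (clone D10) with doxycycline-inducible C-terminally HiBiT-tagged APOL1 G2, 6,000 cells/well, treated with doxycycline plus 8-point 3-fold compound series (0.4% DMSO) for 95 h at 37 °C. Viability by CellTiter-Glo luminescence; EC50 as geometric mean of ≥2 runs, each in duplicate.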
Background: Cellular ATP, detected with luciferase, serves as a proxy for viable cell number.
The compound `CC(CO)(c1ncc(OCCN2CCC3(CC2)C(=O)Nc2ccc(Cl)cc23)cc1C(F)(F)F)S(C)(=O)=O` (centres unmarked) [Compound 401, 5-chloro-1′-(2-{[6-(1-hydroxy-2-methanesulfonylpropan-2-yl)-5-(trifluoromethyl)pyridin-3-yl]oxy}ethyl)-1,2-dihydrospiro[indole-3,4′-piperidin]-2-one] came in with an EC50 of 4.62 nM.

In the case of `CC(C)(O)c1ncc(OCCN2CCC3(CC2)C(=O)Nc2ccc(C#N)cc23)cc1C(F)(F)F` [Compound 411, 1′-(2-{[6-(2-hydroxypropan-2-yl)-5-(trifluoromethyl)pyridin-3-yl]oxy}ethyl)-2-oxo-1,2-dihydrospiro[indole-3,4′-piperidine]-5-carbonitrile], a half-maximal response (EC50) required 1.45 nM.

Compound `[2H]C([2H])(Oc1cnc2c(c1)CCC(=O)N2[C@H]1C[C@@](C)(O)C1)C([2H])([2H])N1CCC2(CC1)C(=O)Nc1ccc(Cl)cc12` [Compound 426, 5-chloro-1′-[2-({7-oxo-8-[(cis)-3-hydroxy-3-methylcyclobutyl]-5,6,7,8-tetrahydro-1,8-naphthyridin-3-yl}oxy)(1,1,2,2-^2H4)ethyl]-1,2-dihydrospiro[indole-3,4′-piperidin]-2-one] showed an EC50 of 4.1 nM.

Compound `C[C@]1(O)C[C@@H](n2cc3cc(OCCN4CCC5(CC4)C(=O)Nc4ccc(Cl)cc45)cc(C(F)(F)F)c3n2)C1` [Compound 427, 5-chloro-1′-[2-({2-[(cis)-3-hydroxy-3-methylcyclobutyl]-7-(trifluoromethyl)-2H-indazol-5-yl}oxy)ethyl]-1,2-dihydrospiro[indole-3,4′-piperidin]-2-one] had an EC50 of 1.95 nM.

On to `C[C@]1(O)C[C@@H](n2cc3cc(OCCN4CCC5(CC4)C(=O)Nc4ccc(C#N)cc45)cc(C(F)(F)F)c3n2)C1` [Compound 428, 2-oxo-1′-[2-({2-[(cis)-3-hydroxy-3-methylcyclobutyl]-7-(trifluoromethyl)-2H-indazol-5-yl}oxy)ethyl]-1,2-dihydrospiro[indole-3,4′-piperidine]-5-carbonitrile], for which the EC50 amounted to 12.2 nM.

`C[C@]1(O)C[C@@H](n2cnc3cc(OCCN4CCC5(CC4)C(=O)Nc4ccc(C#N)cc45)cc(C(F)(F)F)c32)C1` [Compound 433, 1′-(2-((1-((cis)-3-hydroxy-3-methylcyclobutyl)-7-(trifluoromethyl)-1H-benzo[d]imidazol-5-yl)oxy)ethyl)-2-oxospiro[indoline-3,4′-piperidine]-5-carbonitrile] came in with an EC50 of 2.13 nM.

The compound `C[C@]1(O)C[C@@H](n2nnc3cc(OCCN4CCC5(CC4)C(=O)Nc4ccc(Cl)cc45)cc(C(F)(F)F)c32)C1` [Compound 434, 5-chloro-1′-[2-({1-[(cis)-3-hydroxy-3-methylcyclobutyl]-7-(trifluoromethyl)-1H-1,2,3-benzotriazol-5-yl}oxy)ethyl]-1,2-dihydrospiro[indole-3,4′-piperidin]-2-one] returned an EC50 of 1.5 nM.

As for `C[C@]1(O)C[C@@H](n2nnc3cc(OCCN4CCC5(CC4)C(=O)Nc4ccc(C#N)cc45)cc(C(F)(F)F)c32)C1` [Compound 435, 2-oxo-1′-[2-({1-[(cis)-3-hydroxy-3-methylcyclobutyl]-7-(trifluoromethyl)-1H-1,2,3-benzotriazol-5-yl}oxy)ethyl]-1,2-dihydrospiro[indole-3,4′-piperidine]-5-carbonitrile], the EC50 amounted to 2.94 nM. Compared with the last compound, the EC50 is about 2-fold higher.

As for `C[C@]1(O)C[C@@H](n2cnc3cc(OCCN4CCC5(CC4)C(=O)Nc4ccc(Cl)cc45)cc(C#N)c32)C1` [Compound 439, 5-(2-{5-chloro-2-oxo-1,2-dihydrospiro[indole-3,4′-piperidin]-1′-yl}ethoxy)-1-[(cis)-3-hydroxy-3-methylcyclobutyl]-1H-1,3-benzodiazole-7-carbonitrile], it took 3.92 nM to reach a half-maximal effect (EC50).

The compound `C[C@]1(O)C[C@@H](n2nnc3cc(OCCN4CCC5(CC4)C(=O)Nc4ccc(Cl)cc45)cnc32)C1` [Compound 440, 5-chloro-1′-[2-({3-[(cis)-3-hydroxy-3-methylcyclobutyl]-3H-[1,2,3]triazolo[4,5-b]pyridin-6-yl}oxy)ethyl]-1,2-dihydrospiro[indole-3,4′-piperidin]-2-one] showed an EC50 of 15 nM.

For `Cc1nc2cc(OCCN3CCC4(CC3)C(=O)Nc3ccc(Cl)cc34)cc(C(F)(F)F)c2n1[C@H]1C[C@@](C)(O)C1` [Compound 442, 5-chloro-1′-[2-({2-methyl-1-[(cis)-3-hydroxy-3-methylcyclobutyl]-7-(trifluoromethyl)-1H-1,3-benzodiazol-5-yl}oxy)ethyl]-1,2-dihydrospiro[indole-3,4′-piperidin]-2-one], the EC50 was found to be 1.16 nM.

Turning to `Cc1nc2cc(OCCN3CCC4(CC3)C(=O)Nc3ccc(C#N)cc34)cc(C(F)(F)F)c2n1[C@H]1C[C@@](C)(O)C1` [Compound 443, 1′-[2-({2-methyl-1-[(cis)-3-hydroxy-3-methylcyclobutyl]-7-(trifluoromethyl)-1H-1,3-benzodiazol-5-yl}oxy)ethyl]-2-oxo-1,2-dihydrospiro[indole-3,4′-piperidine]-5-carbonitrile], the EC50 was 2.5 nM.

Turning to `C[C@]1(O)C[C@@H](n2cnc3cc(OCCN4CCC5(CC4)C(=O)Nc4ccc(C(F)F)cc45)cc(C(F)(F)F)c32)C1` [Compound 450, 5-(difluoromethyl)-1′-[2-({1-[(cis)-3-hydroxy-3-methylcyclobutyl]-7-(trifluoromethyl)-1H-1,3-benzodiazol-5-yl}oxy)ethyl]-1,2-dihydrospiro[indole-3,4′-piperidin]-2-one], the EC50 was found to be 0.846 nM. This EC50 lies about 3-fold lower than the previous one.

For `C[C@]1(O)C[C@@H](n2cnc3cc(OCCN4CCC5(CC4)C(=O)Nc4c(I)cc(Cl)cc45)cc(C(F)(F)F)c32)C1` [Compound 453, 5-chloro-7-iodo-1′-[2-({1-[(cis)-3-hydroxy-3-methylcyclobutyl]-7-(trifluoromethyl)-1H-1,3-benzodiazol-5-yl}oxy)ethyl]-1,2-dihydrospiro[indole-3,4′-piperidin]-2-one], the EC50 was 1.81 nM. This EC50 lies about 2.1-fold higher than the previous one.

`C[C@]1(O)C[C@@H](n2cnc3cc(OCCN4CCC5(CC4)C(=O)Nc4ccc(Cl)cc45)cc(F)c32)C1` [Compound 454, 5-chloro-1′-(2-((7-fluoro-1-((cis)-3-hydroxy-3-methylcyclobutyl)-1H-benzo[d]imidazol-5-yl)oxy)ethyl)spiro[indoline-3,4′-piperidin]-2-one] returned an EC50 of 4.34 nM. Compared with the last compound, the EC50 is about 2.4-fold higher.

With `C[C@]1(O)C[C@@H](n2ncc3cc(OCCN4CCC5(CC4)C(=O)Nc4ccc(Cl)cc45)cc(C(F)(F)F)c32)C1` [Compound 464, 5-chloro-1′-[2-({1-[(cis)-3-hydroxy-3-methylcyclobutyl]-7-(trifluoromethyl)-1H-indazol-5-yl}oxy)ethyl]-1,2-dihydrospiro[indole-3,4′-piperidin]-2-one], it took 0.659 nM to reach a half-maximal effect (EC50).

Compound `C[C@]1(O)C[C@@H](n2ncc3cc(OCCN4CCC5(CC4)C(=O)Nc4ccc(C#N)cc45)cc(C(F)(F)F)c32)C1` [Compound 465, 2-oxo-1′-[2-({1-[(cis)-3-hydroxy-3-methylcyclobutyl]-7-(trifluoromethyl)-1H-indazol-5-yl}oxy)ethyl]-1,2-dihydrospiro[indole-3,4′-piperidine]-5-carbonitrile] showed an EC50 of 1.22 nM.
